In ChEMBL document CHEMBL1148980, “Scabrolides E-G, three new norditerpenoids from the soft coral Sinularia scabra” (2004):
≈ marks a conversion by molar mass, not a printed value. Calls of active or inactive are those of the source. No cut-off for these calls is given here.

Columns and labels:
Assay type in all cases: functional
[1] = (§1) Cytotoxicity against human HEPA 59T/VGH cells by MTT assay; conditions: read-out: ED50 (the source's name)
KB = test: Cytotoxicity against human KB cells by MTT assay
HEPA 59T/VGH = test: as §1

C=C(C)[C@H]1C/C=C2\C(=O)O[C@H](C[C@]3(C)CC(=O)[C@H](CC(=O)C1)O3)[C@H]2O [SCABROLIDE E]
EC50 [1]: 0.5 µg/mL (≈ 1.44 µM)
EC50 (KB; read-out: ED50 (the source's name)): 0.7 µg/mL (≈ 2.01 µM)

C=C(C)[C@@H]1CC(=O)C[C@H](O)[C@@]2(O)[C@H]1C=C1C(=O)O[C@@H]3C[C@](C)(O)[C@H]2[C@H]13
Activity (HEPA 59T/VGH): inactive
Activity (KB): inactive
